Measurements published in patent publication US7033829B2, “Method to inhibit cell growth using oligonucleotides” (Trustees of Boston University, priority 2000, dated 2006).
Oligonucleotides are written 5' to 3', each unit as a sugar letter and its base; * is a phosphorothioate linkage, no mark a phosphodiester; rarer units and linkages stand in square brackets, end groups in braces. Plain capitals give the bases only. d = 2'-deoxy (DNA); {P} = phosphate

What was measured:
Format in all cases: cell-based, human
[1] = system: SCC12F cells; assay: FACS cell cycle analysis of SCC12F cells; details: for cells in the S phase / S-phase arrest: 48 hours (control 26%)
Experimental: However, when increasing concentrations of the phosphorothioate 11mer-1 were also added to these cultures, fewer cells became arrested (FIGS. 21A–21G).
Exposure of keratinocytes to UVB irradiation affects the expression of genes involved in cell cycle arrest, DNA repair and cytokine production. Single-stranded oligonucleotides sharing sequence homology with the telomere 3′ overhang, when introduced into cells, mimic these UV effects. To identify other genes that may be similarly modulated, cells of keratinocyte origin (SCC12F; a human epidermal squamous cell carcinoma line provided by Dr. James Rheinwald of Harvard University) were exposed to solar simulated irradiation (SSR) (20 mJ/cm^2, measured at 285±5 nm), to an 11-base oligonucleotide (pGTTAGGGTTAG; SEQ ID NO:5) homologous to the telomere overhang (T-oligo), or to a complementary sequence as control [pCTAACCCTAAC; (SEQ ID NO:9) control oligonucleotide]. […] These are mitochondrial-transcribed genes whose encoded proteins participate in cellular respiration.
In order to determine whether these oligonucleotides similarly affect other human cell types and to investigate the role of p53, we treated a squamous cell carcinoma line (SCC12F) (Rheinwald, J. G., et al., 1983, Human carcinogenesis. pp. 86–96. Academic Press (New York)) that over-expresses a presumptively mutated p53 (Eller, M. S. and B. A. Gilchrest. 2000, Pigment Cell Res. 13: 94–97) and a p53-null osteosarcoma cell line (Saos-2) (Wang, L. H., et al., 1998, Anticancer Res 18: 321–325) with either diluent alone, 11mer-1, 11mer-2 or 11mer-3. Cultures were analyzed by FACS after 48 hours (FIGS. 33A–33H). […] Although the percentage of cells in the S-phase in 11mer-1-treated SCC12F and Saos-2 cells was virtually identical (53±6% and 52±1%, respectively), the G0/G1 and G2/M content of the two cell types were somewhat different. This may reflect differential uptake of the oligonucleotide leading to dose-dependent differences, and/or different pathways acting in these cells to control the cell cycle. No apoptotic response to the oligonucleotides was detected in either cell type within 72 hours.

[2] = system: Jurkat cells; assay: FACS cell cycle / apoptosis analysis of Jurkat cells; details: for cell cycle profile: 0.4 μM; for apoptosis in human T cells: summary of Example 13; for cells accumulated in the S-phase: 5 μM, within 72 hours (diluent 36%)
Experimental: Oligonucleotides homologous to the telomere overhang repeat sequence (TTAGGG; SEQ ID NO:11), sequence (11mer-1: pGTTAGGGTTAG; SEQ ID NO: 5), complementary to this sequence (11mer-2: pCTAACCCTAAC; SEQ ID NO: 9) and unrelated to the telomere sequence (11mer-3: pGATCGATCGAT; SEQ ID NO: 10) were added to cultures of Jurkat cells, a line of human T cells, one of the cell types reported to undergo apoptosis in response to telomere disruption. Within 48 hours, 50% of the cells treated with 40 μM of SEQ ID NO: 5 had accumulated in the S phase, compared to 25–30% for control cells (p<0.0003, non-paired t-test; see FIGS. 19A–19D), and by 72 hours, 13% of these cells were apoptotic as determined by a sub-G0/G1 DNA content, compared to 2–3% of controls (p<0.007, non-paired t-test; see FIGS. 19E–19H). At 96 hours, 20±3% of the 11mer-1 treated cells were apoptotic compared with 3–5% of controls (p<0.0001, non-paired t-test). To exclude preferential uptake of the 11mer-1 as an explanation of its singular effects, Jurkat cells were treated with oligonucleotides labeled on the 3′ end with fluorescein phosphoramidite, then subjected to confocal microscopy and FACS analysis. The fluorescence intensity of the cells was the same after all treatments at 4 hours and 24 hours.
Three DNA oligonucleotides were designed initially: one homologous to the telomere overhang (11mer-1: pGTTAGGGTTAG; SEQ ID NO:5), one complementary to this sequence (11mer-2: pCTAACCCTAAC; SEQ ID NO:9) and one unrelated (11mer-3: pGATCGATCGAT; SEQ ID NO:10). For later experiments, additional 11 base oligonucleotides were designed: one a simple permutation of 11mer-1 (pGGGTTAGGGTT; SEQ ID NO:13), one with the same number of G residues but roughly 50% rather than 100% homology to the overhang (pTAGATGTGGTG; SEQ ID NO:14), and one with roughly 50% overhang homology but also containing cytosine bases (pCGGGCTTATTG; SEQ ID NO:15) (Midland Certified Reagent Company, Midland, Tex.). Cell Sources and Culture Human neonatal fibroblasts were established and cultured as previously described (Eller, M. S., et al., 1997, Proc Natl Acad Sci USA 94: 12627–12632). Fibroblasts from a Nijmegen breakage syndrome (NBS) patient (#GM07166) and an age-matched control (GM03399) were purchased from the NIGMS Human Cell Repository, Coriell Institute for Medical Research, Camden, N.J.) and cultured in DMEM/15% FBS. Saos-2 cells were purchased from the American Type Culture Collection (ATCC; Manassas, Va.). SCC12F cells were the kind gift of Dr. James Rheinwald, Harvard University. Cell Cycle Analysis The established line of human T lymphocytes, termed Jurkat cells (180,000 cells/ml) were plated in RPMI medium 1640 supplemented with 3% FBS (both from GIBCO/BRL, Gaithersburg, Md.). […] Cells were collected up to 96 hours after treatment, stained with propidium iodide and analyzed by FACS using a Becton-Dickinson FacsScan and CellQuest software. Caspase Activity
Oligonucleotides homologous to the 3′ overhang sequence (11mer-1: pGTTAGGGTTAG; SEQ ID NO:5), complementary to this sequence (11mer-2: pCTAACCCTAAC; SEQ ID NO:9) and unrelated to the telomere sequence (11mer-3: pGATCGATCGAT; SEQ ID NO:10) were synthesized. The three 11mer oligonucleotides were added to cultures of Jurkat cells, an established line of human T lymphocytes, a cell type reported to undergo apoptosis in response to telomere disruption [Karlseder, J., et al, (1999) Science 283, 1321–1325] and DNA damaging ionizing radiation (IR) [Vigorito, E., et al, (1999), Hematol Cell Ther 41, 153–161]. Duplicate cultures of Jurkat cells were treated with a final concentration of 40 μM 11mer-1, -2 or -3, oligonucleotides, or an equal volume of diluent (water) as a control. Cells were collected up to 96 hours after treatment, stained with propidium iodideandanalyzed by FACS. See also Example 13 and FIGS. 19A–19H.
To further confirm the specificity of these responses to the telomere overhang sequence, three variations were tested. […]

[3] = system: normal (control) fibroblasts; assay: FACS analysis of normal (control) fibroblasts; details: 40 μM
Experimental: Fibroblasts were obtained from an NBS (Nijmegen breakage syndrome) patient, in which p95/Nbs1 was below the level of detection. Preconfluent cultures or normal (control) fibroblasts and NBS fibroblasts were treated with 40 μM of the oligonucleotides and collected after 48 hours for FACS analysis (FIGS. 34A–34H). The averages and standard deviations were calculated from triplicate cultures of each condition. FACS profiles from one representative experiment of three are shown.

| Substance | cells in the S phase / S-phase arrest [1] | cell cycle profile ([2]; 96 hours) | apoptosis (sub-G0/G1 peak) ([2]; 40 μM, 96 hours) | S phase growth arrest [3] | apoptosis in human T cells [2] | cells accumulated in the S-phase [2] [%] | treated cells in the S-phase ([2]; 20 μM, 72 hours) [%] | other results |
| --- | --- | --- | --- | --- | --- | --- | --- | --- |
| 11mer-1-S: phosphorothioate 11mer-1 (dG*dT*dT*dA*dG*dG*dG*dT*dT*dA*dG; further chemistry not fully specified) | did not induce the S-phase arrest | neither of the oligonucleotides affected | had no effect | – | – | – | – | – |
| pCTAACCCTAAC (DNA, 5' {P}, backbone not given here) [SEQ ID NO: 9, reference compound] | – | – | – | unaffected | did not significantly increase apoptosis | – | – | – |
| pGATCGATCGAT (DNA {P}-dGdAdTdCdGdAdTdCdGdAdT) [SEQ ID NO: 10, reference compound] | – | – | – | unaffected | did not significantly increase apoptosis | – | – | – |
| pGTTAGGGTTAG (DNA {P}-dGdTdTdAdGdGdGdTdTdAdG) [SEQ ID NO: 5] | Forty-three precent | neither of the oligonucleotides affected | induced extensive apoptosis | exhibit an S phase growth arrest within 24 hours | induced human T cells to undergo apoptosis | 61 | 58±1 | cells in the S-phase ([1]; 40 μM, 48 hours): 53±6%; cells arrested in the S-phase ([1]; Example 27 (control cells <23%)): > 43%; apoptotic cells (sub-G0/G1 DNA content) ([2]; 40 μM, 72 hours): 13%; cells in S phase ([2]; 40 μM, 72 hours): 38%; apoptotic cells ([2]; 40 μM, 96 hours): 20±3%; cells accumulated in the S phase ([2]; 40 μM, within 48 hours): 50%; activity of the two complete telomere overhang homologs ([2]; separate paired cultures): equal in activity |
| thymidine dinucleotide [pTpT] | – | – | – | – | – | 45 | 53±1 | higher concentration needed to duplicate the 11mer-1 effect on cell cycle arrest [2]: 4 fold; apoptosis ([2]; 20 μM, even at 96 hours): No apoptosis was detected |
